In patent publication US20090163540A1, “Quinine Sulfate Polymorphs, Processes of Preparing, Compositions and Uses Thereof” (priority 2007, published 2009):
Structures can show the parent of a compound that is named as a salt.

Tests used:
[1] = Moisture balance (moisture sorption/desorption, 5% to 95% RH) with post-MB XRPD; format: physicochemical
Experimental: In addition to XRPD, quinine sulfate polymorph A is analyzed by DSC, TGA, moisture balance (MB), post-MB XRPD, hotstage microscopy (HSM), Karl Fischer (KF) and variable temperature X-ray powder diffraction (VT-XRPD); a summary of the analyses is provided in Table 11b. Moisture sorption/desorption data are collected on a VTI SGA-100 Vapor Sorption Analyzer. Sorption and desorption data are collected over a range of 5% to 95% relative humidity (RH) at 10% RH intervals. Samples are not dried prior to analysis. Equilibrium criteria used for analysis are less than 0.0100% weight change in 5 minutes, with a maximum equilibration time of 3 hours if the weight criterion is not met. Data are not corrected for the initial moisture content of the samples. Sodium chloride and polyvinylpyrrolidone are used as calibration standards.

[2] = Variable-temperature XRPD (solid form on heating); format: physicochemical
Experimental: In addition to XRPD, quinine sulfate polymorph A is analyzed by DSC, TGA, moisture balance (MB), post-MB XRPD, hotstage microscopy (HSM), Karl Fischer (KF) and variable temperature X-ray powder diffraction (VT-XRPD); a summary of the analyses is provided in Table 11b. Variable-temperature XRPD is performed on a Shimadzu XRD-6000 X-ray powder diffractometer equipped with an Anton Paar HTK 1200 high temperature stage. The sample is packed in a ceramic holder and analyzed from 2.5 to 40 °2θ at 3°/min (0.4 sec/0.02° step). A silicon standard is analyzed to check the instrument alignment. Temperature calibration is performed using vanillin and sulfapyridine standards. Data are collected and analyzed using XRD-6000 v. 4.1.

C=C[C@H]1C[N@@]2CC[C@H]1C[C@H]2[C@H](O)c1ccnc2ccc(OC)cc12 [Form A, quinine sulfate]
post-MB XRPD form ([1]; solid form after moisture balance): Form A | MB (moisture balance) result ([1]; sorption/desorption 5% to 95% RH at 10% RH intervals): non-hygroscopic | VT-XRPD form ([2]; 40° C. (listed after 110° C.)): 40° C.: Form A | VT-XRPD form ([2]; 50° C.): 50° C.: Form A | VT-XRPD form ([2]; 75° C.): 75° C.: Form A | VT-XRPD form ([2]; 110° C.): 110° C.: Pattern D | VT-XRPD form ([2]; ambient temp): ambient temp: Form A
